Source: patent publication US10208082B2, “Sustained-release pharmaceutical composition for treatment and prevention of eye disease” (Daiichi Sankyo Company, Limited, priority 2014, dated 2019)

Key:
[1] = system: NQO1; assay: NQO1 assay in Hepa1c1c7 cells; type: cell-based, mouse; conditions: approximately 48 hours culture, mean of 3 wells
Experimental: Hepa1c1c7 cells (mouse hepatic cell line, ATCC, catalog No. CRL-2026) were cultured (5% CO2, 37° C.). A DMEM (Life Technologies Japan Ltd., catalog No. 11965-092) medium also containing 10% inactivated FBS was used. The medium contained 100 units/mL (final concentration) penicillin and […] (final concentration) streptomycin. The NQO1 assay was conducted according to previous reports (Anal Biochem 1998; 169: 328; and Methods Enzymol 2004; 382: 243).
The Hepa1c1c7 cells were seeded at 10000 cells/well in a 96-well plate. Approximately 24 hours later, the medium was replaced with a medium containing terpenoid derivative (III), terpenoid derivative (I), or terpenoid derivative (II), and the culture was further performed for approximately 48 hours. A lysis solution (a solution containing 2 mM EDTA and 0.8% digitonin), a reaction solution (a solution containing 0.025 M of tris-HCl, 0.067% of albumin, 0.01% of Tween-20, 2 U/mL of glucose-6-phosphate dehydrogenase, 5 μM of flavin adenine dinucleotide, 1 […], 30 μM of nicotinamide adenine dinucleotide phosphate, 0.03% of 3-(4, 5-dimethyl-2-thiazolyl)-2,5-diphenyltetrazolium bromide (MTT), and 50 μM of menadione), and a stop solution (a solution containing 0.3 mM dicumarol and 5 mM potassium dihydrogen phosphate, pH 7.4) were prepared. After removal of the medium, 50 μL of the lysis solution was added thereto, and the mixture was left standing at 37° C. for 10 minutes. The reaction mixture was further shaken at room temperature for 10 minutes.
Two hundred uL of the solution was added thereto, and the mixture was left standing at room temperature for 5 minutes. Fifty μL of the stop solution was added thereto, and the absorbance at 490 nm was measured.
The test results were analyzed using Prism (GraphPad Software, Inc., Ver. 5) to calculate the CD value (concentration of double NQO1 activity) of the concentration at which the activity of NQO1 was increased 2-fold. Each group consisted of 3 wells and indicated as a mean of CD values. […]

[2] = Pharmacokinetic test of microspheres containing terpenoid derivative (III) in rabbit eye; type: in vivo; conditions: male, Kbl:NZW (white rabbit), intravitreal fluid, other: intravitreal, mean of 4 eyes and SD
Experimental: Suspensions were prepared using each of terpenoid derivative (III) of the present invention, terpenoid derivative (III) of the present invention-PLA-0005 [prepared by using PLA-0005 as the base material and adjusting the mixing ratio of terpenoid derivative (III) of the present invention and PLA-0005 to 1:9], and terpenoid derivative (III) of the present invention-PLA-0020 [prepared by using PLA-0020 as the base material and adjusting the mixing ratio of terpenoid derivative (III) of the present invention and PLA-0020 to 1:9], and saline as a solvent such that the concentration of terpenoid derivative (III) was 3 mM.
50 μL each of the suspensions was intravitreally administered to each white rabbit (Oriental Yeast Co., Ltd., Kbl:NZW, male, 8 weeks old). After the intravitreal administration, the rabbit was euthanized, and the intravitreal fluid and the retina were sampled. The concentration of terpenoid derivative (III) contained in these samples was measured. The numeric values shown in Table 12 below are indicated by a mean from 4 eyes and standard deviation. The drug concentration in each tissue was measured by LC/MS/MS. The tissue was pretreated by dilution with purified water in an amount corresponding to 10 times the weight of the tissue and subsequent homogenization to obtain a measurement sample. A water/acetonitrile (1:1) solution containing an internal standard solution (IS; niflumic acid) was added to the obtained sample to extract the drug. Then, the solution was filtered through a filter and injected to LC/MS/MS.
The LC/MS/MS conditions were as follows: • <UPLC conditions>: Waters Acquity UPLC • analysis column: ACQUITY UPLC BEH C18 1.7 μm • column temperature: 50° C. • mobile phase A: 95% acetonitrile (5 mM ammonium acetate) • mobile phase B: 5% acetonitrile (5 mM ammonium acetate).
• <MS/MS conditions>: analysis apparatus API4000 • Ionization mode: ESI • Ion polarity mode: Positive • Monitor Ion • terpenoid derivative (III) (Precursor ion (m/z): 538.5, Product ion (m/z): 460) • IS (Precursor ion (m/z): 283.2, Product ion (m/z): 265).

concentration at 1 day ([2]; Day 1, intravitreal 50 μL of 3 mM suspension) [nM] | concentration at 2 day ([2]; Day 2, intravitreal 50 μL of 3 mM suspension) [nM] | concentration at 7 day ([2]; Day 7, intravitreal 50 μL of 3 mM suspension) [nM] | Compound | CD value (concentration of double NQO1 activity) [1] [nM]
– | – | – | COC(=O)[C@@]12CC[C@]3(C)[C@H](C(=O)C=C4[C@@]5(C)C=C(C#N)C(=O)C(C)(C)[C@@H]5CC[C@]43C)[C@@H]1CC(C)(C)[C@@H](O)C2 [terpenoid derivative (I)] | 0.3
– | – | – | COC(=O)[C@@]12CC[C@]3(C)[C@H](C(=O)C=C4[C@@]5(C)[C@H]6O[C@@]6(C#N)C(=O)C(C)(C)[C@@H]5CC[C@]43C)[C@@H]1CC(C)(C)[C@H](O)C2 [terpenoid derivative (II)] | 0.1
79700 ± 22100 | 0.1 | 0.1 | COC(=O)[C@@]12CC[C@]3(C)[C@H](C(=O)C=C4[C@@]5(C)[C@H]6O[C@@]6(C#N)C(=O)C(C)(C)[C@@H]5CC[C@]43C)[C@@H]1CC(C)(C)[C@@H](O)C2 [terpenoid derivative (III)] | 1.0
